According to patent US20170190744A1 (Vicuron Pharmaceuticals, Inc., priority 2015, published 2017):
Converted amounts (≈) assume the structure as drawn. Read-outs that look alike come from different tables or passages of the source.

How the values were obtained:
gram-negative bacteria [1] = assay: MIC by broth microdilution (NCCLS), IsoB0 and reference compounds; format: cell-based
Method: (§1) MICs were determined by the broth microdilution methodology following the standard NCCLS procedure, with or without 30% bovine serum, using bacterial inocula of approximately 5×10^5 CFU/mL. Tests were read after 20-24 h incubation at 35° C.

[2] = test system: Candida albicans SKF 2270; assay: MIC by broth microdilution (NCCLS), with or without 30% bovine serum (Example 19); format: cell-based; conditions: Candida albicans, SKF2270
Method: MICs were determined by the broth microdilution methodology following the standard NCCLS procedure (NCCLS Document M7-A6, Vol. 23, No. 2, “Methods for dilution antimicrobial susceptibility tests for bacteria that grow aerobically.” Approved Guideline. January 2003, which can be herein incorporated by reference in its entirety), with or without 30% adult bovine serum (BS) (PAA Laboratories GmBH, Haidmannweg Pasching Austria), using bacterial innocula at approximately 5×10^5 CFU/ml. The media employed included cation-adjusted Müller Hinton broth (Difco Laboratories, Detroit, Mich.) that was used that was adjusted with CaCl2 and MgCl2 to a final concentration of 20 mg/L and 10 mg/L, respectively. Tests were read following 20-24 hours of incubation at 35° C.

Candida albicans SKF2270 = assay: MIC by broth microdilution (NCCLS), IsoB0 and reference compounds; format: cell-based
[3] = test system: MSSA Staph. aureus Smith 819; assay: MIC (microbiological activity); format: cell-based; conditions: Staphylococcus aureus
gram-positive bacteria = assay: MIC by broth microdilution (NCCLS), IsoB0 and reference compounds; format: cell-based
Method: Müller Hinton broth (Difco Laboratories, Detroit, Mich., USA) adjusted with CaCl2 and MgCl2 to a final concentrations of 20 mg/L and 10 mg/L respectively.
Adult bovine serum (BS) (batch A05123-159 PAA Laboratories GmBH Haidmannweg Pasching Austria).
The microorganisms used are reference standard strains from the American Type Culture Collection (ATCC, Rockville, USA), Smith Kline and French Laboratories (SKF) and the Upjohn Company (UC, Kalamazoo, Mich., USA).
as §1

MRSA Staph. aureus 3817 = assay: MIC (microbiological activity); format: cell-based; conditions: Staphylococcus aureus
gram-negative bacteria [4] = assay: MIC by broth microdilution (NCCLS), with or without 30% bovine serum (Example 19); format: cell-based
Method: (§2) The compounds were prepared according to the examples above and the methods described in U.S. Patent Application Publication No. 2004/0142883. Individual dalbavancin compounds were purified by HPLC. […] Before dissolution, each sample was analyzed by HPLC and quantified. […] Louis, Mo.), Gentamycin (GE) (Sigma Chemical Co., St. Louis, Mo.), Penicillin G (Pen.G) (Sigma Chemical Co., St. Louis, Mo.), and Amphotericin B (Amph.B) (Sigma Chemical Co., St. Louis, Mo.). The microorganisms used were reference strains obtained from the American Type Culture Collection (ATCC) (Rockville, Md.), SmithKline and French Laboratories (SKF), and the Upjohn Company (UC) (Kalamazoo, Mich.).

gram positive bacteria = assay: as above; format: cell-based
Method: as §2

[5] = test system: CR-BSI due to gram-positive bacterial pathogens; assay: Catheter-related blood stream infection (CR-BSI) trial: efficacy; format: in vivo, human; conditions: microbiological ITT population; dalbavancin 1000 mg day 1 + 500 mg day 8 IV; vancomycin 1000 mg IV every 12 hours
Text: This study evaluated the safety and efficacy (clinical and microbiological) of a weekly dosing regimen of dalbavancin in the treatment of adults with catheter-related blood stream infection (CR-BSI) due to gram-positive bacterial pathogens, relative to the standard care of treatment, vancomycin.
Patients with CR-BSI due to suspected or known Gram-positive pathogen(s) who met the inclusion/exclusion criteria were randomized to one of two treatment arms in this open-label, comparative, multi-center study. Dalbavancin was administered once weekly in weekly dalbavancin and comparator (vancomycin) was administered daily in vancomycin. Catheter removal was required for patients with Staphylococcus aureus infection; catheter management was left to the Investigator's discretion for patients with coagulase-negative staphylococci (CoNS) infection. Efficacy was clinically based on the improvement or resolution of clinical signs and symptoms of CR-BSI such that no additional antibacterials were warranted, and microbiologically on the eradication or presence of the baseline or other pathogens. […]
Efficacy was evaluated based on clinical and microbiological responses.
For the primary efficacy analysis, 95% confidence intervals were also determined, and for prognostic factor analyses using the primary efficacy variable, logistic regression was used.

[6] = ESI mass spectroscopy of multimers in solution; format: physicochemical; conditions: ESI-MS
Method: Experiments were performed using an Applied Biosystem API III+ mass spectrometer equipped with a TurbolonSpray source, a Triple Quadrupole analyzer, operating in positive ion mode.
The mass spectra were obtained in electrospray positive mode on a Finnigan LCQ^Deca ion trap instrument previously tuned and calibrated in electrospray mode using Ultramark 1621, caffeine and MRFA (L-metionyl-arginyl-phenilalanyl-arginine).

human α-glycoprotein = assay: Protein binding by isothermal titration microcalorimetry; conditions: 25° C.
Method: For comparison, similar experiments with some necessary modifications were performed using teicoplanin.
Teicoplanin was studied with human albumin and α-glycoprotein.
Integrated heat effects, after correction for heats of dilution, were analyzed by non-linear regression using a simple single-site binding model with the standard Microcal ORIGIN software package. Raw data (μcal/sec) for each injection were integrated to give the total heat effect per addition, then divided by amount of injectant to give kcal/mole of injectant. The same integration was applied for control dilution effects, and this was subtracted from the actual titration data. This provided a differential of the binding curve in which the extent of binding is proportional to the total heat liberated (or absorbed). This was then analyzed by non-linear regression methods in terms of various standard binding models. The simplest model assumes simple non-competitive binding equilibrium, and gives three parameters:

[7] = Enterococcus faecalis, ATCC7080
[8] = Enterococcus faecalis, ATCC29212
[9] = Staphylococcus aureus, ATCC19636
[10] = Staphylococcus aureus, ATCC29213
[11] = Staphylococcus epidermidis, ATCC12228

Compound: CN[C@H](CC(C)C)C(=O)N[C@H]1C(=O)N[C@@H](CC(N)=O)C(=O)N[C@H]2C(=O)N[C@H]3C(=O)N[C@H](C(=O)N[C@H](C(=O)O)c4cc(O)cc(O)c4-c4cc3ccc4O)[C@H](O)c3ccc(c(Cl)c3)Oc3cc2cc(c3O[C@@H]2O[C@H](CO)[C@@H](O)[C@H](O)[C@H]2O[C@H]2C[C@](C)(N)[C@H](O)[C@H](C)O2)Oc2ccc(cc2Cl)[C@H]1O [Vancomycin, vancomycin, reference compound]
- MIC (gram-negative bacteria [1]): > 128 µg/mL
- MIC (gram-negative bacteria [1]; Escherichia coli): > 128 µg/mL
- MIC (gram-negative bacteria [1]; Escherichia coli, ATCC25922): > 128 µg/mL
- MIC (gram-negative bacteria [1]; Proteus vulgaris, ATCC881): > 128 µg/mL
- MIC [2]: > 128 µg/mL
- MIC (Candida albicans SKF2270): > 128 µg/mL
- MIC [3]: 0.5 µg/mL (≈ 0.345 µM)
- MIC (gram-positive bacteria; [7]): 1 µg/mL (≈ 0.69 µM)
- MIC (gram-positive bacteria; [8]): 2 µg/mL (≈ 1.38 µM)
- MIC (gram-positive bacteria; [9]): 1 µg/mL (≈ 0.69 µM)
- MIC (gram-positive bacteria; [10]): 2 µg/mL (≈ 1.38 µM)
- MIC (gram-positive bacteria; [11]): 2 µg/mL (≈ 1.38 µM)
- MIC (gram-positive bacteria; Streptococcus pneumoniae, UC41): 0.5 µg/mL (≈ 0.345 µM)
- MIC (gram-positive bacteria; Streptococcus pyogenes): 1 µg/mL (≈ 0.69 µM)
- MIC (MRSA Staph. aureus 3817): 0.5 µg/mL (≈ 0.345 µM)
- MIC (gram-negative bacteria [4]): > 128 µg/mL
- MIC (gram-negative bacteria [4]; Escherichia coli): > 128 µg/mL
- MIC (gram-negative bacteria [4]; Escherichia coli, ATCC25922): > 128 µg/mL
- MIC (gram-negative bacteria [4]; Proteus vulgaris, ATCC881): > 128 µg/mL
- MIC (gram positive bacteria): 1 µg/mL (≈ 0.69 µM)
- MIC (gram positive bacteria; [7]): 1 µg/mL (≈ 0.69 µM)
- MIC (gram positive bacteria; [8]): 2 µg/mL (≈ 1.38 µM)
- MIC (gram positive bacteria; [9]): 1 µg/mL (≈ 0.69 µM)
- MIC (gram positive bacteria; [10]): 2 µg/mL (≈ 1.38 µM)
- MIC (gram positive bacteria; [11]): 2 µg/mL (≈ 1.38 µM)
- MIC (gram positive bacteria; Streptococcus pneumoniae, UC41): 0.5 µg/mL (≈ 0.345 µM)
- overall response success rate at TOC [5]: 50.0%

Compound: teicoplanin
- multimers in solution [6]: does not show multimeric complexes
- apparent binding affinity Ka, α-glycoprotein (human α-glycoprotein): 0.07 (±0.01) × 10^5M^−1
